Here are results for one substance from patent publication US6087375A, “Methods of treating or preventing thromboses” (priority 1999, dated 2000).

The target in test [1] is thrombin from human plasma (Homo sapiens, UniProt P00734). The test is described as follows: Km-based fluorogenic assay for inhibition of thrombin (Example 7). Particulars: FIG. 9, ambient temperature, pH 7.2. Details: from tissue; host or cells: human plasma. The format is biochemical. As for the experimental part:
Thrombin from human plasma was obtained from Enzyme System Products, Dublin, Calif., in glycerol:water 1:1, 11.4 mg/ml, 3800 U/mg, MW 36,700, and stored undiluted at -20° C. It was freshly diluted the day of use.
To dilute for the assay, 0.67 μl (25 Units) of thrombin was pipetted into 5 ml of 0.1 mg/ml BSA (from Pierce, Catalog No. 23209, BSA fraction V, a 2 mg/ml stock in saline with sodium azide), in cold PBS (GIBCO, Catalog No. 14190-136, without calcium chloride and magnesium chloride, pH 7.2) and briefly vortexed, yielding a stock of 5 mU thrombin/μl.
The substrate was N-tBOC-β-Benzyl-Asp-Pro-Arg-7-Amido4-Methylcoumarin HCl and was obtained from Sigma, Catalog No. B4028, Lot 122H0070, F.W. 770.3. Five mg was dissolved in […] DMSO for a 4 mM stock. The stock was stored in 200 μl aliquots at -20° C. in the dark.
An alternative substrate was N-tBOC-Val-Pro-Arg-7-Amido4-Methylcoumarin HCl and was obtained from Sigma, Catalog No. B-9385, Lot 53H0805, F.W. of free base 627.7. Five mg was dissolved in 1.863 ml DMSO for a 4 mM stock. The stock was stored in 200 μl aliquots at -20° C. in the dark.
The fluorescent standard was 7-Amido4-Methylcoumarin and was obtained from Aldrich, Catalog No. 25,737-0, MW 175.19. […]
Initial readings were taken to ensure exclusion of rogue wells with abnormally high backgrounds (λ excitation at 360 nm, bandwidth […], λ emission, 460 nm, bandwidth 40 nm). Then, 25 μl of a 10×stock of the putative inhibitor were added per well, mixed for 5 seconds and read kinetically for 10 minutes at ambient temperature to assess background interference and/or any increase in hydrolysis of substrate due to inhibitor.
The thrombin assay was then initiated by adding 25 μl of thrombin/well with a multichannel pipettor and mixed for 5 seconds. The appearence of the fluorescent product (free 7-amido-4-methylcoumarin released from the peptide by thrombin) was followed simultaneously in 48 wells (one reading per minute for 30 minutes, λ excitation at 360 nm, bandwidth 40 nm, λ emission, 460 nm, bandwidth 40 nm). […]

For test [2], the system named is human platelets (thrombin-induced aggregation). Put plainly: Thrombin-induced platelet aggregation assay. Format: cell-based. As for the experimental part: The conjugate was prepared according to the following protocol. A 15 μM solution of RSA in PBS was reacted with 200 μM argatroban-C6 NHS ester for 1 hour at room temperature. Sham samples consist of the RSA incubated for the same length of time at RT in 2% DMSO in PBS. Each of the samples was then concentrated to a final volume of 1.5 mL using Amicon Centricon 30 filtration/concentration devices. The concentrated samples were then desalted on Pierce's 5 ML Kwiksep excellulose plastic desalting columns. The excluded volumes containing RSA or argatroban-C6-RSA were then subjected to BCA microprotein estimation and lyophilization. In addition, these samples were analyzed by LC/MS, sandwich ELISA assays (described above) to measure thrombin binding and immunoblotting.
Platelets were purified from freshly drawn human blood diluted with the anticoagulant buffer ACD (9 mls of blood to 1 mL of buffer). The blood was centrifuged for 25 min at 200×g. The platelet-rich plasma (PRP) was recovered with a plastic pipette. The PRP was centrifuged for 15 min at 3,000×g in v-shaped plastic tubes. The supernatant, called platelet-poor plasma (PPP), was then removed and saved, and the platelets were resuspended in buffer A1 (35 mM citric acid, 103 mM NaCl, 5 mM each of glucose and KCl, 2 mM CaCl2, 1 mM […], 3.5 mg/mL BSA, 0.1 μM PGE1 and 0.3 U/mL of apyrase at pH 6.5). The resuspended platelets were washed 2 times with buffer A1. After the last wash, the platelets were resuspended in buffer B1 (137 mM NaCl, 2.6 mM KCL 12 mM NaHCO3, 0.3 mM NaH2 PO4, 3 mM CaCl2, 1 mM MgCl2, 5 mM glucose, 3.5 mg/mL BSA and […] apyrase at pH 7.4) at a density of 3×10^5 /μL. The platelets were maintained at room temperature until ready for use.
Various parameters relevant to platelet aggregation were obtained on a four channel aggregometer manufactured by AFFI BIO. In brief, the reaction chambers are warmed to 37° C. and are agitated at a rate of 1,200 rpm. Light is passed through the reaction chambers, with 300 μL of buffer B1 used to set the 100% transmittance level for each chamber. From a series of standardization experiments, it was determined that 0.5 U/mL of human thrombin (Sigma) is an optimal aggregating concentration of thrombin and is used to set. the 0% transmittance for the instrument. Standard conditions for the assay involve incubating 250 μL of the platelet suspension with or without 50 μL of inhibitor diluted in buffer in the reaction chambers for 60 seconds at 37° C. The value of transmittance is now set as 0%. After this measurement, thrombin is added to the reaction chambers (20 μl) and transmittance is measured for the next 6 minutes. Samples were performed in triplicate.

Another test deals with thrombin. Put plainly: Sandwich ELISA for thrombin binding of conjugated proteins (anti-thrombin detection). As for the experimental part: (§1) The plates were incubated at room temperature for 30 minutes and washed as above.
as §1
Next, 100 μl/well of ABC-HRP (Vector, catalog no. PK4000) was added, each component diluted 1:500 in PBS, pH 7.4, with 0.1% TWEEN 20 and incubated 30 minutes at room temperature prior to use.

For the substance “RSA-argatroban-C6 conjugate: rabbit serum albumin covalently bound by argatroban-C6 NHS ester molecules”, in test [1], the “IC50 (estimated)” value is about 0.025 µM. The “IC50 (estimated concentration which inhibits 50% of the aggregation)” value in test [2] (0.5 U/mL human thrombin, 37° C., conjugate: average of 10 argatrobans/RSA used) is 4.5 to 7.5 µM. The “delay in thrombin-induced platelet aggregation” value in test [2] (FIG. 11, versus sham-treated RSA) is “clearly delayed platelet aggregation”. In addition, the “absolute ELISA signal” value in the test on thrombin (RSA conjugate versus HSA conjugate) is on record as “the absolute signal is lower than that obtained with HSA”. Moreover, the “concentration at which a significant signal above background was detected” value in the test on thrombin (RSA conjugate, FIG. 3) is “approximately 30 ng/ml”.
